Patent US7056928B2, “Pyrimidine derivatives as selective inhibitors of COX-2” (Glaxo Group Limited, priority 2001, dated 2006)

Legend:
[1] = molecular target: T1, microsomal h-COX2 (Homo sapiens, UniProt P35354); assay: Microsomal assay, inhibition of h-COX2; assay type: biochemical; settings: microsomal preparation from baculovirus infected SF9 cells; PGE2 by EIA; read-out: COX-2: IC50
T1 construct: made in house; host or cells: baculovirus infected SF9 cells (microsomal preparation)
T1 sequence (P35354 18-604): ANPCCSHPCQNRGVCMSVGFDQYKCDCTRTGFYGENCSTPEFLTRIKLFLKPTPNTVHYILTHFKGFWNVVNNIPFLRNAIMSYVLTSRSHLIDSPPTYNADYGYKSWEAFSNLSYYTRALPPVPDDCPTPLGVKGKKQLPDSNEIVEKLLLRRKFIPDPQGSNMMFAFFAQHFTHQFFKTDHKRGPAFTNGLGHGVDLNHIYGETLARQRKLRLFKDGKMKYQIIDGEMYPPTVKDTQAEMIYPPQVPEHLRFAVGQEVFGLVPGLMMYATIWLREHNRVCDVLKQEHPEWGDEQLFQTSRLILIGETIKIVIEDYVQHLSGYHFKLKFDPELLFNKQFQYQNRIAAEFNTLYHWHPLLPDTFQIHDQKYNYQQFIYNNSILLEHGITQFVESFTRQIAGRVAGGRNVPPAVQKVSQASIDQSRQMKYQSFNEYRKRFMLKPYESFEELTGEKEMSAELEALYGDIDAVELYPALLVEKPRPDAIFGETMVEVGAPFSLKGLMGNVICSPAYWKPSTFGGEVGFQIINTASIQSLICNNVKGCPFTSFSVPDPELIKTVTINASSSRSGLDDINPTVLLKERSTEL
Description: (§1) Inhibitory activity against microsomal h-COX2 was assessed against a microsomal preparation from baculovirus infected SF9 cells. An aliquot of microsomal preparation was thawed slowly on ice and a 1/40,000 dilution prepared from it into the assay buffer (sterile water, degassed with argon containing 100 mM HEPES (pH 7.4), 10 mM EDTA (pH7.4), 1 mM phenol, 1 mM reduced glutathione, 20 mg/ml gelatin and 0.001 mM Hematin). Once diluted the enzyme solution was then sonicated for 5 seconds (Branson sonicator, setting 4, 1 cm tip) to ensure a homogeneous suspension. 155 μl enzyme solution was then added to each well of a 96-well microtitre plate containing either […] test compound (40×required test concentration) or 5 μl DMSO for controls. Plates were then mixed and incubated at room temperature for 1 hour. Following the incubation period, 40 μl of 0.5 μM arachidonic acid was added to each well to give a final concentration of 0.1 μM. Plates were then mixed and incubated for exactly 10 minutes (room temperature) prior to addition of 25 μl 1M HCl (hydrochloric acid) to each well to stop the reaction. 25 μl of 1M NaOH (sodium hydroxide) was then added to each well to neutralise the solution prior to determination of PGE2 levels by enzyme immunoassay (EIA).
(§2) The following IC50 value for inhibition of COX-2 and COX-1 were obtained from the microsomal assay for compounds of the invention: […]

[2] = molecular target: COX-1 (Homo sapiens, UniProt P23219); assay: Microsomal assay, inhibition of COX-1; assay type: biochemical
Chain of COX-1 (P23219 24-599): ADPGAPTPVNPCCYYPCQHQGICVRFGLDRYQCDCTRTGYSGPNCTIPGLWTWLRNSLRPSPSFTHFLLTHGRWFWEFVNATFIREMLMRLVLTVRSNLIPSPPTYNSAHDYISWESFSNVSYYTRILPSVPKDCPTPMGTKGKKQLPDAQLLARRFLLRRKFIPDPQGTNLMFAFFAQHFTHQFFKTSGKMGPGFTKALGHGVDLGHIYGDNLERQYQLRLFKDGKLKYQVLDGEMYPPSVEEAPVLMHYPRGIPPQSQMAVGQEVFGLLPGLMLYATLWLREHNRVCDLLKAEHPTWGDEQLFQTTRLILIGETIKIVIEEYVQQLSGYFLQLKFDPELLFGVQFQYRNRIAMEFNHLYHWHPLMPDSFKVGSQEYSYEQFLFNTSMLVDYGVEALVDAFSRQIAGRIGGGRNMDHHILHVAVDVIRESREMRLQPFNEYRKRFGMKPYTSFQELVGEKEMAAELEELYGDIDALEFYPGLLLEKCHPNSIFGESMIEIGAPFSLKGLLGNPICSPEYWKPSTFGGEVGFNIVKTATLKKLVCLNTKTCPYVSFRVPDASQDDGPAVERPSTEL
Description: as §1, §2

An IC50 [1] of 0.022 µM and an IC50 [2] of 17.7 µM were found for `CS(=O)(=O)c1ccc(-c2cc(CF)nc(NCc3ccccc3)n2)cc1` [Example 1, 4-[4-(Methylsulfonyl)phenyl]-N-(Phenylmethyl)-6(fluoromethyl)pyrimidin-2-amine] in this work.
